Experimental data: EP0121635A1, “3',5',-Diarabinosides, their preparation and their therapeutical application” (SYNTHELABO, priority 1982, dated 1984)

How the values were obtained:
[1] = test system: tumeur ascitique d'Ehrlich; experiment: Development of Ehrlich ascites tumour in mice (survival); type: in vivo, Souris; settings: for Nombre d'animaux sans tumeur au 28ème jour: day 28, controls 0/12 and 0/5; for Nombre d'animaux sans tumeur au 28ème jour / % d'augmentation de survie (pour les animaux décédés): same regimen; for Durée de survie des souris: souris Swiss, 2 x 10^6 malignant cells i.p., 4 days; for % d'augmentation de survie (pour les animaux décédés): versus controls; for % d'augmentation: increase of survival versus controls
Procedure: Les composés de l'invention ont été soumis à des essais pharmacologiques montrant leur intérêt dans le domaine antitumoral. L'action des composés sur le développement de la tumeur ascitique d'Ehrlich chez la Souris a été observée.
Les essais se font sur des lots de 5 ou 6 souris Swiss de 12 à 15 g. Chaque animal reçoit 2 x 10^6 cellules malignes par voie péritonéale. Le traitement débute 16 h après l'inoculation et consiste en 2 injections par jour de 0,75 ml d'une solution de dinucléotide à 2 mg/ml dans le péritoine c'est-à-dire 3 mg par animal et par jour ou 200 mg/kg. La durée du traitement est de 4 jours.
Les dinucléotides,composés de l'invention, ont été testés de la manière indiquée.

virus Herpès = experiment: Herpes virus yield in treated cell cultures (TCID50 titre); type: cell-based; settings: untreated control harvest titre 10^5,625; concentration not given
Excerpt: L'activité des trois composés de l'invention Ara A-p-Ara A, Ara A-p-Ara C et Ara C-p-Ara A a également été démontrée sur le virus Herpès.
La récolte virale témoin (cellules non traitées) a un titre TCI D50 (tissue culture infecting dosis) de 10^5,625.
Les cultures traitées par les composés de l'invention ont les titres suivants • Ara A-p-Ara A TCID50 = 10^3,16 • ^Ara A^-p-Ara C TCID50 ^< 102 • Ara C-p-Ara A TCID50 ≤ 10^2,5

[2] = Tableau 1, dinucleotide 200 mg/kg per day i.p. in 2 injections, start 16 h after inoculation, controls 16,54 j (Ara A, Ara C) and 18 j (Ara A-p-Ara C)
[3] = Tableau 2, dinucleotide 200 mg/kg per day i.p., controls 14,67 j

Row | SMILES | Nombre d'animaux sans tumeur au 28ème jour ([1]; Tableau 1) | Durée de survie des souris [1, 2] | % d'augmentation de survie (pour les animaux décédés) ([1]; Tableau 1) | % d'augmentation ([1]; Tableau 2) | Durée de survie des souris [1, 3] | TCID50 (titre of viral harvest of treated cultures) (virus Herpès)
1 | Nc1ncnc2c1ncn2[C@@H]1O[C@H](CO)[C@@H](O)[C@@H]1O [Ara A, 9-β-D-arabinofuranosyl-adénine] | 0 | 24,5 j | 48,5% | 39,75% | 20,5 j | –
2 | Nc1ncnc2c1ncn2[C@@H]1O[C@H](COP(=O)(O)O[C@H]2[C@H](O)[C@H](n3cnc4c(N)ncnc43)O[C@@H]2CO)[C@@H](O)[C@@H]1O [Ara A-p-Ara A] | – | – | – | 44,3% | 21,17 j | –
3 | Nc1ccn([C@@H]2O[C@H](COP(=O)(O)O[C@H]3[C@H](O)[C@H](n4cnc5c(N)ncnc54)O[C@@H]3CO)[C@@H](O)[C@@H]2O)c(=O)n1 [Ara A-p-Ara C] | 4/5 | > 36 J | > 100% | – | – | < 102
4 | Nc1ccn([C@@H]2O[C@H](CO)[C@@H](O)[C@@H]2O)c(=O)n1 [Ara C, 1-β-D-arabinofuranosyl-cytosine] | 0 | 32 J | 94,4% | – | – | –
